The Ki is a dissociation constant, usually derived from enzyme kinetics or from competition with a known ligand. For orientation: Emax means the greatest response seen or fitted, relative to the assay's reference. Broadly, the IC50 is the point on the concentration scale where inhibition reaches its midpoint.

The target of assay [1] is T1, human 5HT1A receptor (Homo sapiens, UniProt P08908).
T1 construct: expressed in transfected cells; host or cells: CHO cells, stably transfected
T1 sequence (P08908 1-422): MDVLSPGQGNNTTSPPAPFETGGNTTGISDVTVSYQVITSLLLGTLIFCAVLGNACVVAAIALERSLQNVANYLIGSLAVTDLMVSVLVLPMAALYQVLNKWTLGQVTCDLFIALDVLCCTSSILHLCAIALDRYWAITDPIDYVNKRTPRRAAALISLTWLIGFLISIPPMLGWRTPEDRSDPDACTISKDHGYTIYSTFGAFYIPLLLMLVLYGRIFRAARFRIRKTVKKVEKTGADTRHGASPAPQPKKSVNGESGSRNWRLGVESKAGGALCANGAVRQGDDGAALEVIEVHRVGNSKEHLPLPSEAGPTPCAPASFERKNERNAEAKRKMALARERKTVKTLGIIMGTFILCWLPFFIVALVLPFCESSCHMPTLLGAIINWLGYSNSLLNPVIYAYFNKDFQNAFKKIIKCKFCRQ
The assay is described as follows: 5-HT1A Receptor Binding Assay (displacement of [^3 H] 8-OH-DPAT binding in CHO cells stably transfected with human 5HT1A receptor). How it is done: High affinity for the serotonin 5-HT1A receptor was established by testing a compound's ability to displace [^3 H] 8-OH-DPAT binding in CHO cells stably transfected with human 5HT1A receptor. Stably transfected CHO cells are grown in DMEM containing 10% heat inactivated FBS and non-essential amino acids. Cells are scraped off the plate, transferred to centrifuge tubes, and washed twice by centrifugation (2000 rpm for 10 min., 4° C.) in buffer (50 mM Tris pH 7.5). The resulting pellets are aliquoted and placed at -80° C. On the day of assay, the cells are thawed on ice and resuspended in buffer. The binding assay is performed in a 96 well microtiter plate in a total volume of 250 μL. Non-specific binding is determined in the presence of […] 5-HT, final ligand concentration is 1.5 nM. Following a 30 minute incubation at room temperature, the reaction is terminated by the addition of ice cold buffer and rapid filtration through a GF/B filter presoaked for 30 minutes in 0.5% PEI. Compounds are initially tested in a single point assay to determine percent inhibition at […], and Ki values are determined for the active compounds.

Assay [2] has as its target T1, human 5HT1A receptor. The assay is described as follows: 5-HT1A Receptor Intrinsic Activity Assay, agonist activity (cAMP in forskolin-treated CHO cells stably transfected with the human 5-HT1A receptor). The class given is cell-based. To be noted: read-out: cAMP Emax. How it is done: (§1) The intrinsic activity of compounds of the present invention was established by testing the claimed compounds ability to reverse the stimulation of cyclic adenosinemonophosphate (cAMP) in CHO cells stably transfected with the human 5-HT1A receptor.
(§2) Stably transfected CHO cells were grown in DMEM containing 10% heat inactivated FBS and non-essential amino acids. The cells are plated at a density of […] cells per well in a 24 well plate and incubated for 2 days in a CO2 incubator. On the second day, the media is replaced with 0.5 mL treatment buffer (DMEM +25 mM HEPES, 5 mM theophylline, 10 μM pargyline) and incubated for 10 minutes at 37° C. Wells are treated with forskolin (1 μM final concentration) followed immediately by the test compound (0.1 and 1 μM for initial screen) and incubated for an additional 10 minutes at 37° C. The reaction is terminated by removal of the media and addition of 0.5 mL ice cold assay buffer (supplied in the RIA kit). Plates are stored at -20° C. prior to assessment of cAMP formation by RIA. EC50 values are determined for the active test compounds. Compounds shown to have no agonist activities (Emax=0%) are further analyzed for their ability to reverse agonist induced activity. In separate experiments, 6 concentrations of antagonist are preincubated for 20 minutes prior to the addition of agonist and forskolin. Cells are harvested as described above. The cAMP kit is supplied by Amershan and the RIA is performed as per kit instructions, and calculations of IC50 performed by GraphPad Prism.

Assay [3] has as its target T1, human 5HT1A receptor. Briefly: 5-HT1A Receptor Intrinsic Activity Assay, ability to reverse agonist induced activity (cAMP, CHO cells stably transfected with the human 5-HT1A receptor). The class given is cell-based. The following applies: reversal of agonist induced activity; 6 concentrations of antagonist preincubated 20 minutes prior to agonist and forskolin. The protocol: as §1
as §2, with “The cAMP kit is supplied by Amershan and the RIA is performed as per kit instructions, and calculations of IC50 performed by GraphPad Prism.” left out

Where [4] appears, read: [^3 H] 8-OH-DPAT 1.5 nM, CHO cells, 30 minute incubation at room temperature, read-out: 5-HT1A binding Ki.
Setting [5] is: agonist activity, forskolin 1 μM, CHO cells, 10 minutes at 37° C.

Read-outs that look alike come from different tables or passages of the source.

`COc1ccc(F)cc1C1=CCN(C[C@@H](Cc2ccccc2)N(C)C(=O)N2CCOCC2)CC1` [Example 2, Morpholine-4-carboxylic acid {(1R)-1-benzyl-2-[4-(5-fluoro-2-methoxy-phenyl)-1,2,5,6-tetrahydro-4H-pyridin-1-yl]-ethyl}-methyl-amide] had an inhibitory constant (Ki) in assay [1] of 0.0266 µM. The Emax in assay [2] (CHO) was found to be 0%.
Regarding `COc1ccc(F)cc1C1CCN(C[C@@H](Cc2ccccc2)N(C)C(=O)NC2CCCCC2)CC1` [Example 1, 1-{(1R)-1-Benzyl-2-[4-(5-fluoro-2-methoxyphenyl)-piperidin-1-yl]-ethly}-1-3-cyclohexyl-1-methyl-urea], the Ki in assay [1] (setting [4]) was determined as 0.0035 µM. The maximal effect (Emax) in assay [2] (setting [5]) was 0%. The 50% inhibitory concentration (IC50) in assay [3] came out at 0.0469 µM.
In the same order, the values of `COc1ccc(F)cc1C1=CCN(C[C@@H](Cc2ccccc2)N(C)C(=O)NC2CCCCC2)CC1` [Example 3, 1-{(1R)-1-Benzyl-2-[4-(5-fluoro-2-methoxy-phenyl)-1,2,5,6-tetrahydro-4H-pyridin-1-yl]-ethyl-}-3-cyclohexyl-1-methyl-urea] are 0.0035 µM, 0% and 0.0126 µM.

For the origin of these results see patent US6239126A, “Arylpiperidine and aryl-1,2,5,6-tetra-hydropyridine urea derivatives” (American Home Products Corporation, priority 1999, dated 2001).
